This note sets out measurements from article PMC9276586 (Cellular and Molecular Life Sciences: CMLS, 2022).

Series [1] addresses aureolysin (Staphylococcus aureus, UniProt P81177). The series can be described thus: Proteolytic stability against aureolysin. The series is classed as in vitro ADME. The conditions noted are these: bacterial protease aureolysin; percentage of intact peptide at time points by LC–MS. As for the experimental part:
A major limitation of AMPs as potential drug candidates is due to their inherent proteolytic instability, and endogenous AMPs are readily degraded by both host- and pathogen-proteases. […] Therefore, the stability of CD4-PP was tested against this enzyme. The percentage of the intact peptide at different time points was monitored using LC–MS, and compared to LL-37 as a control. […] In contrast, CD4-PP is stable for up to 6 h (Supplementary Fig. S2).
[picture] Supplementary Figure S2.

The subject of series [2] is MDR K. pneumoniae (CCUG 58547). The series is classed as cell-based, Klebsiella pneumoniae. The settings on record: 10 mM Tris buffer, bacteria 1 × 10^6 CFU/mL, 1 h 37 °C, then TSB 16–18 h, read at 595 nm. As for the experimental part: The following uropathogenic bacterial species were used for the in vitro experiments, E. coli CFT073; E. coli ESBL-producing (CCUG 55197); K. pneumoniae (ATCC 25955); K. pneumoniae multidrug resistant (MDR) (CCUG 58547); and P. aeruginosa (ATCC 27853). Clinical isolates were obtained from the Department of Clinical Microbiology, Karolinska University Hospital, Solna, Sweden. Bacteria were cultured aerobically overnight on blood agar plates at 37 °C. For each bacterial species, 20 clinical isolates were included. For further assessment of biofilm formation, the E. coli isolate #12 from a child with pyelonephritis was chosen. The isolate expresses both curli and cellulose, as well as type 1 fimbriae and produces biofilm as measured on microtiter plates One-step knockout of bcsA and csgBA were carried out using the methods as described previously. […]
MIC of CD4-PP was evaluated against the type strains and the 20 clinical bacterial isolates using a two-step micro-dilution assay adapted for testing AMPs. […]
Bacteria were grown to mid-log phase before diluting to a final concentration of 1 × 10^6 CFU/mL in 10 mM Tris buffer using a Densichek Plus (BioMérieux). […] The MIC was read spectrophotometrically at 595 nm. […] The effects of salt ions on the antibacterial activities of CD4-PP were assessed against E. coli (ATCC 25922) and P. aeruginosa (ATCC 27853) type strains. […]

For series [3], the system named is E. coli ESBL strain (CCUG 55971). The series is classed as cell-based, Escherichia coli. The conditions noted are these: 10 mM Tris buffer, bacteria 1 × 10^6 CFU/mL, 1 h 37 °C, then TSB 16–18 h, read at 595 nm. Here is the method:
(§1) The following uropathogenic bacterial species were used for the in vitro experiments, E. coli CFT073; E. coli ESBL-producing (CCUG 55197); K. pneumoniae (ATCC 25955); K. pneumoniae multidrug resistant (MDR) (CCUG 58547); and P. aeruginosa (ATCC 27853). Clinical isolates were obtained from the Department of Clinical Microbiology, Karolinska University Hospital, Solna, Sweden. Bacteria were cultured aerobically overnight on blood agar plates at 37 °C. For each bacterial species, 20 clinical isolates were included. For further assessment of biofilm formation, the E. coli isolate #12 from a child with pyelonephritis was chosen. The isolate expresses both curli and cellulose, as well as type 1 fimbriae and produces biofilm as measured on microtiter plates One-step knockout of bcsA and csgBA were carried out using the methods as described previously. The following mutants were used: WE1 bcsA::Cm (deficient in cellulose production), WE11 csgBA::Cm (deficient in curli production), and WE16 csgBA bscA::Cm (deficient in both cellulose and curli production). E. coli CFT073 was used for all experiments where nothing else is stated.
(§2) MIC of CD4-PP was evaluated against the type strains and the 20 clinical bacterial isolates using a two-step micro-dilution assay adapted for testing AMPs. The concentrations of CD4-PP were prepared double strength with two-fold serial dilutions ranging from 50 to 0.78 µM in 50 µL of 10 mM Tris buffer in a U-bottom 96-well plate (Corning Incorporated).
(§3) Bacteria were grown to mid-log phase before diluting to a final concentration of 1 × 10^6 CFU/mL in 10 mM Tris buffer using a Densichek Plus (BioMérieux). To each well, 50 µL suspension was added and incubated at 37 °C for 1 h and the final concentrations of peptide tested were from 25 to 0.39 µM. […] The MIC was read spectrophotometrically at 595 nm. MIC was defined as the lowest concentration of CD4-PP which inhibits bacterial growth. The effects of salt ions on the antibacterial activities of CD4-PP were assessed against E. coli (ATCC 25922) and P. aeruginosa (ATCC 27853) type strains. […]

A further series has as its system E. coli CFT073. The series is classed as cell-based, Escherichia coli. Here is the method: as §1, §2, §3
Series [4] relates to Klebsiella pneumoniae (ATCC 25955). The series is classed as cell-based. The settings on record: 10 mM Tris buffer, bacteria 1 × 10^6 CFU/mL, 1 h 37 °C, then TSB 16–18 h, read at 595 nm. Here is the method: as §1, §2
(§4) Bacteria were grown to mid-log phase before diluting to a final concentration of 1 × 10^6 CFU/mL in 10 mM Tris buffer using a Densichek Plus (BioMérieux). To each well, 50 µL suspension was added and incubated at 37 °C for 1 h and the final concentrations of peptide tested were from 25 to 0.39 µM. […] The MIC was read spectrophotometrically at 595 nm. MIC was defined as the lowest concentration of CD4-PP which inhibits bacterial growth. The effects of salt ions on the antibacterial activities of CD4-PP were assessed against E. coli (ATCC 25922) and P. aeruginosa (ATCC 27853) type strains. The following salts were used: sodium chloride (NaCl), ammonium chloride (NH4Cl), calcium chloride (CaCl2), magnesium chloride (MgCl2) and ferric chloride (FeCl3). All salts were purchased from Merck.

Series [5] concerns aureolysin. The series can be described thus: bacterial protease aureolysin. The conditions noted are these: up to 6 h.
Series [6] relates to Pseudomonas aeruginosa (ATCC 27853). The series is classed as cell-based. Here is the method: as §1, §2, §4
Where [7] appears, read: stated in SEM method, bacteria at 10^8 CFU/mL in 10 mM Tris buffer.

Values after ≈ are worked out from the molar mass of the structure shown. Like-named read-outs stand apart in the source and are kept apart here. Peptide text beside a SMILES is read from it.

Sequence of aureolysin (Staphylococcus aureus, UniProt P81177) (P81177 209-509): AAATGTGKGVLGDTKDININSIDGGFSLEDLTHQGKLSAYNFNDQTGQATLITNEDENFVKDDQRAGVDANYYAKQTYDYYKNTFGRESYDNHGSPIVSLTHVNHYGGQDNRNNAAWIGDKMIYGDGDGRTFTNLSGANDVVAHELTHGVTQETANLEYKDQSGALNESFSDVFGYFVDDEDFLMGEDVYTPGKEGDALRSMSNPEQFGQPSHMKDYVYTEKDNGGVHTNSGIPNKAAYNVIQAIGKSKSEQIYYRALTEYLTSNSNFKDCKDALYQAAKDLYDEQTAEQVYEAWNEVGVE

Take `CC[C@H](C)[C@@H]1NC(=O)[C@H](CCCNC(=N)N)NC(=O)[C@H](CCCCN)NC(=O)[C@H](C(C)C)NC(=O)[C@H]([C@@H](C)CC)NC(=O)[C@H](CCCNC(=N)N)NC(=O)[C@H](CCCCN)NC(=O)CNC(=O)CNC(=O)[C@@H]2CCCN2C(=O)[C@H](CS)NC(=O)[C@H](CCCNC(=N)N)NC(=O)[C@H](CC(C)C)NC(=O)[C@H](Cc2ccccc2)NC(=O)[C@H](C)NC(=O)[C@H](CCCCN)NC(=O)[C@H]([C@@H](C)CC)NC(=O)[C@H](CCCNC(=N)N)NC(=O)[C@H](CCCCN)NC(=O)[C@H](C(C)C)NC(=O)[C@H]([C@@H](C)CC)NC(=O)[C@H](CCCNC(=N)N)NC(=O)[C@H](CCCCN)NC(=O)CNC(=O)CNC(=O)[C@@H]2CCCN2C(=O)CNC(=O)[C@H](CCCNC(=N)N)NC(=O)[C@H](CC(C)C)NC(=O)[C@H](Cc2ccccc2)NC(=O)[C@H](C)NC(=O)[C@H](CCCCN)NC1=O` [CD4-PP] (cyclo(AFLRCPGGKRIVKRIKAFLRGPGGKRIVKRIK)): the “time for which the peptide is stable with aureolysin” value on aureolysin [1] was “up to 6 h”. Besides, the MIC (as a rule, the smallest concentration in the dilution series that meets the test's criterion for growth inhibition) came to 1.56 µM (≈ 5.62 µg/mL) in series [2]; 0.78 µM (≈ 2.81 µg/mL) in series [3]; 0.78 µM (≈ 2.81 µg/mL) with E. coli CFT073 (CFT073, 1 h); 1.56 µM (≈ 5.62 µg/mL) in series [4].

Regarding LLGDFFRKSKEKIGKEFKRIVQRIKDFLRNLVPRTES, the cleaved bond entry in the series on aureolysin [5] is on record as “L31-V32”.

Consider CPGGKRIVKRIKAFLRGPGGKRIVKRIKAFLR, for which the not cleaved result in the series on aureolysin [5] was “stable for up to 6 h”.

As to `CC[C@H](C)[C@H](NC(=O)[C@H](CCCCN)NC(=O)[C@H](CCC(=O)O)NC(=O)[C@H](CCCCN)NC(=O)[C@H](CO)NC(=O)[C@H](CCCCN)NC(=O)[C@H](CCCNC(=N)N)NC(=O)[C@H](Cc1ccccc1)NC(=O)[C@H](Cc1ccccc1)NC(=O)[C@H](CC(=O)O)NC(=O)CNC(=O)[C@H](CC(C)C)NC(=O)[C@@H](N)CC(C)C)C(=O)NCC(=O)N[C@@H](CCCCN)C(=O)N[C@@H](CCC(=O)O)C(=O)N[C@@H](Cc1ccccc1)C(=O)N[C@@H](CCCCN)C(=O)N[C@@H](CCCNC(=N)N)C(=O)N[C@H](C(=O)N[C@H](C(=O)N[C@@H](CCC(N)=O)C(=O)N[C@@H](CCCNC(=N)N)C(=O)N[C@H](C(=O)N[C@@H](CCCCN)C(=O)N[C@@H](CC(=O)O)C(=O)N[C@@H](Cc1ccccc1)C(=O)N[C@@H](CC(C)C)C(=O)N[C@@H](CCCNC(=N)N)C(=O)N[C@@H](CC(N)=O)C(=O)N[C@@H](CC(C)C)C(=O)N[C@H](C(=O)N1CCC[C@H]1C(=O)N[C@@H](CCCNC(=N)N)C(=O)N[C@H](C(=O)N[C@@H](CCC(=O)O)C(=O)N[C@@H](CO)C(=O)O)[C@@H](C)O)C(C)C)[C@@H](C)CC)C(C)C)[C@@H](C)CC` [LL-37], the “degradation by aureolysin (in words)” value on aureolysin [1] is listed as “rapidly degraded within minutes”. The “MIC (reference concentration used for SEM)” value (against E. coli CFT073 (setting [7]); in series [6] (setting [7])) was 15.62 µM each time. The MIC is given as more than 10 µM in series [6] (CaCl2 2.5 mM); 2.5 µM (≈ 11.2 µg/mL) in series [6] (FeCl3 4 µM); 5 µM (≈ 22.5 µg/mL) in series [6] (MgCl2 1 mM); 1.25 µM (≈ 5.62 µg/mL) in series [6] (NH4Cl 6 µM); 5 µM (≈ 22.5 µg/mL) in series [6] (NaCl 150mM); 1.25 µM in series [6] (salt series: Tris-buffer 10mM, no added salt).
